Reference: patent publication US20080120731A1, “Transgenic Animal Models for Neurodevelopmental Disorders” (priority 2004, published 2008)
Where two headings read alike, the source gives them in different places.

How the values were obtained:
APH1BC^−/− mice = experiment: Prepulse inhibition (PPI) of acoustic startle after antipsychotic injection; assay type: in vivo
Source text: Schizophrenia is a complex disease characterized by delusions and hallucinations (so-called positive symptoms), affective and social disturbances (negative symptoms), but also by cognitive deficits. Disturbed information processing, and more specifically an impairment in the filtering of irrelevant stimuli, is thought to contribute to the disease phenotype by causing “sensory flooding”, which may lead to cognitive fragmentation. A psychophysical measure of (pre-attentive) information filtering is “prepulse inhibition” (PPI). […] The strength of this reflex response is read out by recording the amplitude of the eye-blink response that is part of the startling reaction. This way, the amplitude of the eye-blink response is a measure of the efficiency of the coupling of the sensory stimulus to the motor reflex programme. If the startle stimulus is preceded by a weak, non-startling “prepulse stimulus”, e.g. a tone just above background noise levels, the amplitude of the eye-blink response to the startle stimulus is strongly diminished in normal individuals. […] The “% prepulse inhibition (PPI)” is quantified as: 100−((A2/A1)*100), with A1 being the amplitude of the response to the startle stimulus and A2 the amplitude of the response to the same startle stimulus preceded by the prepulse stimulus. […] In rodents the motor reaction to a startle stimulus is quantified by placing mice into a restraining tube in a sound-proof cabin mounted onto a pressure sensitive platform. Upon presentation of the startling sound, the mouse flinches and the pressure it exerts via its limbs is recorded quantitatively as a ballistogram that can be analysed using appropriate software. This way, the effect of a preceding prepulse on the flinching reaction to a startle stimulus can be calculated.
For all trials, background noise was 70 db, the prepulse preceded the startle stimulus by 100 ms, the prepulse stimuli lasted 20 ms and the startle stimuli lasted 60 ms. […] For each of the four different combinations of prepulse and startle stimulus, the % PPI was calculated using the formula described above. […]

APH1BC ^−/− mice [1] = experiment: Open field locomotor activity (total distance traveled) after apomorphine; conditions: 2 μg/kg subcutaneously; for activity at 0.002 mg/kg: Mus musculus, sc, 10 min
APH1BC ^−/− mice [2] = experiment: Locomotor activity (infrared beam breaks in activity monitor) after amphetamine; conditions: 3 μg/kg intraparietally

O=C(CCCN1CCC(O)(c2ccc(Cl)cc2)CC1)c1ccc(F)cc1 [haloperidol, Haloperidol]
PPI in APH1BC^−/− mice relative to wild type levels (APH1BC^−/− mice; APH1BC^−/− mice, pp 74/p110 and pp 78/p110 trials, 1 μg/kg injected intra-parietally, PPI measured 45 min after injection): essentially normalized | effects on (improvements of) PPI in the p100 trials (APH1BC^−/− mice; p100 trials, 1 μg/kg intra-parietally, 45 min after injection): small but insignificant effects | wild type PPI levels compared to placebo-injected animals (APH1BC^−/− mice; wild type littermates, pp74/p110 and pp 78/p110 trials, 1 μg/kg intra-parietally, 45 min after injection): significantly elevated

CN1CCc2cccc3c2[C@H]1Cc1ccc(O)c(O)c1-3 [apomorphine]
reaction of APH1BC ^−/− mice versus wild-type littermates (APH1BC ^−/− mice [1]; p=0,045 two-tailed student's t test): reacted more strongly | activity at 0.002 mg/kg (APH1BC ^−/− mice [1]; read-out: residual activity (distance APO/distance placebo)*100%, APH1BC −/− mice, 10 min open field): 27% | activity at 0.002 mg/kg (APH1BC ^−/− mice [1]; read-out: residual activity (distance APO/distance placebo)*100%, wild type mice, 10 min open field): 50% | effect on locomotion (total distance traveled in open field) (APH1BC ^−/− mice [1]; […], 10 min open field, p<0,001 for treatment effect): strong inhibition of locomotion

CC(N)Cc1ccccc1 (stereo not shown) [amphetamine, Amphetamine]
reaction of APH1BC ^−/− mice versus wild-type littermates (rise in activity, maximal activity, total activity over two hours) (APH1BC ^−/− mice [2]; p=0,06 for genotype effect): reacted more strongly | time of peak locomotor activity after injection (APH1BC ^−/− mice [2]; […]): 35 to 40 min | locomotor activity after drug administration (APH1BC ^−/− mice [2]; […], monitored 2 h after injection): rose strongly and continuously
